Legend:
Hershberger Test = type: in vivo
[1] = Pregnancy maintenance test; type: in vivo
[2] = molecular target: T1, progesterone receptor of the rabbit uterus (Oryctolagus cuniculus, UniProt P06186); assay: Binding to the progesterone receptor of the rabbit uterus (reference substance progesterone)
T1 construct: from tissue; host or cells: rabbit uterus
T1 sequence (P06186 1-930): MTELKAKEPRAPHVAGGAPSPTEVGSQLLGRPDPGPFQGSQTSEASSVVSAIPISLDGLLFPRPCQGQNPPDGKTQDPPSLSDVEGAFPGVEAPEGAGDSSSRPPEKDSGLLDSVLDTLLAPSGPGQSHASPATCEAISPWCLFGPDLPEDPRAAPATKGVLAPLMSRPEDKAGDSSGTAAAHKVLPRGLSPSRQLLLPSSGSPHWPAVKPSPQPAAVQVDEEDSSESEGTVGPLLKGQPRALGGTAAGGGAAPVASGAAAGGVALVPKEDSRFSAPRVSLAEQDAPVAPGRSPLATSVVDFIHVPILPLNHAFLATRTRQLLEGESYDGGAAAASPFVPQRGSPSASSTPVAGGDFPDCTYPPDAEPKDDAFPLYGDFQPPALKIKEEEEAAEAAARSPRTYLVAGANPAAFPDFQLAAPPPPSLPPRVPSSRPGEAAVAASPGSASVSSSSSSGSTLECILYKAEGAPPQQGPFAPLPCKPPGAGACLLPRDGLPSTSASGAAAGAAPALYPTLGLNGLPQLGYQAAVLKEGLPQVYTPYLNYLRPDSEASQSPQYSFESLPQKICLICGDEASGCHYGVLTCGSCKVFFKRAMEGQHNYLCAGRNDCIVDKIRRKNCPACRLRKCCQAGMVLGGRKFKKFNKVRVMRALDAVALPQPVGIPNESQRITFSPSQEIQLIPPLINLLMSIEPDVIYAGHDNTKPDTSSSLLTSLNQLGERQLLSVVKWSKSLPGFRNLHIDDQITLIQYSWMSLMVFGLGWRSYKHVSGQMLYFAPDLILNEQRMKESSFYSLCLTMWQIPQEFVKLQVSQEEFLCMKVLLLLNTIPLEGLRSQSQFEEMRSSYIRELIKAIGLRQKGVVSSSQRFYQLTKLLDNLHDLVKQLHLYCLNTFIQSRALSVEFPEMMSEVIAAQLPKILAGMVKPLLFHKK

[3] = molecular target: T2, androgen receptor of the rat prostate (Rattus norvegicus, UniProt P15207); assay: Binding to the androgen receptor of the rat prostate (reference substance R 1881); settings: relative to reference substance R 1881 (17β-hydroxy-17α-methyl-estra-4,9,11-trien-3-one)
T2 construct: from tissue; host or cells: rat prostate
T2 sequence (P15207 1-902): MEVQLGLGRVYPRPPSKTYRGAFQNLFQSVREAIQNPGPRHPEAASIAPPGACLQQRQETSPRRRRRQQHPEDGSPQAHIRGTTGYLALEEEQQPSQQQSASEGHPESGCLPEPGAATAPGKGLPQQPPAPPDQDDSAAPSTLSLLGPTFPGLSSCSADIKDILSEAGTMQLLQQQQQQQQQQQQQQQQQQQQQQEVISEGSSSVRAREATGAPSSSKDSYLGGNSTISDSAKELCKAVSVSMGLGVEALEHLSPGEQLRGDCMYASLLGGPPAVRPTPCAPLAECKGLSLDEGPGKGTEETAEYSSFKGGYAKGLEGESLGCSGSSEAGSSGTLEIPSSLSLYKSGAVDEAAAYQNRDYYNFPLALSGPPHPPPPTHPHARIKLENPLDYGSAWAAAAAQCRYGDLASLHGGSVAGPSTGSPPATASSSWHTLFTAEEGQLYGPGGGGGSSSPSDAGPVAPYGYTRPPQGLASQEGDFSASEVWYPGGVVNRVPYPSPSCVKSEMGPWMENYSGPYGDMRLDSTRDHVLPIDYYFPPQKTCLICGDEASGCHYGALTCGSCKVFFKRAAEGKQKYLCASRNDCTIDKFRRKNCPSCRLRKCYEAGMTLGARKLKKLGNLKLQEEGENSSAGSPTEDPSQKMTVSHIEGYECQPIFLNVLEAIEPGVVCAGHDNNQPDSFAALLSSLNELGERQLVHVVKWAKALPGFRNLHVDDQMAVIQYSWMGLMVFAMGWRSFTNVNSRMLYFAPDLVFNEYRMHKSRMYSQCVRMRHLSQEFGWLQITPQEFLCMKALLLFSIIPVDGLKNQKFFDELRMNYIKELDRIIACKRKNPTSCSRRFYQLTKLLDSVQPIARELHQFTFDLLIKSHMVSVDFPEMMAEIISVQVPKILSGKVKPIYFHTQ

**Q.** With `C[C@]12CCC(=O)C=C1CC[C@@H]1[C@@H]2CC[C@]2(C)[C@@H](O)C[C@@H]3C[C@]312` [J 1193, 17β-hydroxy-14α,15α-methylen-androst-4-en-3-one] as the molecule, how does the androgenic activity (Hershberger Test) read?
**A.** significant androgenic activity

**Q.** And the gestagenic action [1]?
**A.** very little gestagenic action

**Q.** And the “binding to the progesterone receptor” value [2]?
**A.** virtually no binding

**Q.** What about the “binding to the androgen receptor” value [3] of the same molecule?
**A.** 24±3%

From patent US6534490B1, “Unsaturated 14, 15-cyclopropanoandrostanes, method for the production thereof and pharmaceutical preparations containing said compounds” (Jenapharm GmbH & Co. KG., priority 1998, dated 2003)
